Like-named read-outs stand apart in the source and are kept apart here.
Experiments:
SARS-CoV-2 = assay: microbe, parasite or virus in culture; format: cell-based; details: Severe acute respiratory syndrome coronavirus 2, 72 h; VeroE6/TMPRSS2 cells, 100 TCID50/well, 3 days; class symbols
[1] = tested on: SARS-CoV-2 hCoV-19/Japan/TY11-927-P1/2021; assay: Combination effect confirmation test, VeroE6/TMPRSS2 cells, strain TY11-927-P1; format: cell-based; details: for EC50 of single agent: VeroE6/TMPRSS2, 3 days; for EC50: Severe acute respiratory syndrome coronavirus 2, VeroE6/TMPRSS2, 72 h, single agent
[2] = tested on: SARS-CoV-2 hCoV-19/Japan/TY/WK-521/2020; assay: Combination effect confirmation test, VeroE6/TMPRSS2 cells, strain WK-521; format: cell-based; details: for EC50 of single agent: VeroE6/TMPRSS2, 3 days
[3] = tested on: SARS-CoV-2 hCoV-19/Japan/TY7-501/2021; assay: Combination effect confirmation test, VeroE6/TMPRSS2 cells, strain TY7-501; format: cell-based
SARS-CoV-2 3CL Protease = SARS-CoV-2 3CL Protease (Severe acute respiratory syndrome coronavirus 2 (2019-nCoV) (SARS-CoV-2), UniProt P0DTD1); assay: biochemical; format: biochemical
[4] = Severe acute respiratory syndrome coronavirus 2, VeroE6/TMPRSS2, 72 h, single agent, hCoV-19/Japan/TY7-501/2021, […]
[5] = recombinant enzyme, RapidFire MS, class symbols, read-out: IC50
[6] = Severe acute respiratory syndrome coronavirus 2, 72 h, single agent, hCoV-19/Japan/TY/WK-521/2020, VeroE6/TMPRSS2, 1000 TCID50/well, 3 days
[7] = read-out: 50% SARS-CoV-2 3CL protease inhibitory concentration (IC50)
[8] = single agent, hCoV-19/Japan/TY/WK-521/2020

Row | Compound | EC50 (SARS-CoV-2) | further results
1 | Cn1cnc(Cn2c(=O)nc(Nc3cc4cn(C)nc4cc3Cl)n(Cc3cc(F)c(F)c(F)c3)c2=O)n1 [Compound I-021] | < 1000 nM | –
2 | Sotrovimab: anti-SARS-CoV-2 monoclonal antibody | – | EC50 of single agent [1]: 1.06(μg/mL)
3 | Cn1cc2cc(Nc3nc(=O)n(-c4cncc5ccccc45)c(=O)n3Cc3cc(F)c(F)c(F)c3)ccc2n1 [Compound I-016] | < 1000 nM | –
4 | Cc1cncc(-n2c(=O)nc(Nc3cc4cn(C)nc4cc3C)n(Cc3ccc(F)c(C#N)c3)c2=O)c1 [Compound I-019] | < 1000 nM | –
5 | CCC(CC)COC(=O)[C@H](C)N[P@](=O)(OC[C@H]1O[C@@](C#N)(c2ccc3c(N)ncnn23)[C@H](O)[C@@H]1O)Oc1ccccc1 [Remdesivir, reference compound] | – | EC50 ([2]; Severe acute respiratory syndrome coronavirus 2, VeroE6/TMPRSS2, 72 h, single agent, hCoV-19/Japan/TY/WK-521/2020, […]): 2500 nM; EC50 [3, 4]: 2300 nM; EC50 [1]: 2000 nM
6 | Cn1cnc(Cn2c(=O)nc(Nc3cc4cn(CCO)nc4cc3Cl)n(Cc3cc(F)c(F)c(F)c3)c2=O)n1 [Compound I-028] | 1000 to 10000 nM | –
7 | Cn1cc2cc(Nc3nc(=O)n(-c4cncc5ccccc45)c(=O)n3Cc3ccc(F)c(C#N)c3)c(Cl)cc2n1 [Compound I-015] | < 1000 nM | –
8 | N#Cc1cc(Cn2c(Nc3cc4cn(C(F)F)nc4cc3Cl)nc(=O)n(-c3cncc4ccccc34)c2=O)ccc1F [Compound I-024] | < 1000 nM | –
9 | Cc1cncc(-n2c(=O)nc(Nc3cc4cn(C)nc4cc3F)n(Cc3cc(F)c(F)c(F)c3)c2=O)c1 [Compound I-002] | < 1000 nM | –
10 | Cc1nc2cc(Cl)c(Nc3nc(=O)n(-c4cncc5ccccc45)c(=O)n3Cc3cc(F)c(F)c(F)c3)cc2n1C [Compound I-032] | 1000 to 10000 nM | IC50 (SARS-CoV-2 3CL Protease; [5]): < 100 nM
11 | Cn1cnc(Cn2c(=O)[nH]/c(=N\c3cc4cn(C)nc4cc3Cl)n(Cc3cc(F)c(F)cc3F)c2=O)n1 | – | EC50 [2, 6]: 370 nM; EC50 [3, 4]: 500 nM; EC50 [1]: 410 nM
12 | N#Cc1cc(Cn2c(Nc3cc4cn(CCO)nc4cc3Cl)nc(=O)n(-c3cncc4ccccc34)c2=O)ccc1F [Compound I-031] | 1000 to 10000 nM | IC50 (SARS-CoV-2 3CL Protease; [5]): < 100 nM
13 | Cc1cncc(-n2c(=O)nc(Nc3ccc4nn(CC(F)F)cc4c3)n(Cc3ccc(F)c(C#N)c3)c2=O)c1 [Compound I-011] | < 1000 nM | –
14 | Cn1cc2cc(Nc3nc(=O)n(-c4cncc5ccccc45)c(=O)n3Cc3cc(F)c(F)c(F)c3)c(Cl)cc2n1 [Compound I-014] | < 1000 nM | –
15 | O=c1nc(NO)ccn1[C@@H]1O[C@H](CO)[C@@H](O)[C@H]1O [EIDD-1931, reference compound] | – | EC50 ([2]; read-out: EC50 of single agent): 690 nM; EC50 ([3]; read-out: EC50 of single agent): 1500 nM
16 | O=c1nc(Nc2ccc3nn(CC(F)F)cc3c2)n(Cc2cc(F)c(F)c(F)c2)c(=O)n1-c1cncc2ccccc12 [Compound I-034] | < 1000 nM | –
17 | Cc1cncc(-n2c(=O)nc(Nc3cc4cn(C)nc4cc3Cl)n(Cc3cc(F)c(F)c(F)c3)c2=O)c1 [Compound I-003] | – | IC50 (SARS-CoV-2 3CL Protease; [7]): 14 nM; EC50 [2, 6]: 177 nM
18 | Cc1nc2cc(Cl)c(Nc3nc(=O)n(Cc4ncn(C)n4)c(=O)n3Cc3cc(F)c(F)c(F)c3)cc2n1C [Compound I-022] | 1000 to 10000 nM | –

Row | Compound | EC50 (SARS-CoV-2) | further results
19 | Cn1cc2cc(Nc3nc(=O)n(-c4cncc5ccccc45)c(=O)n3Cc3ccc(F)c(C#N)c3)c(F)cc2n1 [Compound I-025] | < 1000 nM | –
20 | N#Cc1cc(Cn2c(Nc3ccc4nn(CC(F)F)cc4c3)nc(=O)n(-c3cncc4ccccc34)c2=O)ccc1F [Compound I-009] | < 1000 nM | –
21 | Cc1cncc(-n2c(=O)nc(Nc3cc4cn(C)nc4cc3Cl)n(Cc3cc(F)c(F)cc3F)c2=O)c1 [Compound I-012] | – | IC50 (SARS-CoV-2 3CL Protease; [7]): 9.1 nM
22 | Cn1cnc(Cn2c(=O)nc(Nc3cc4cn(C(F)F)nc4cc3Cl)n(Cc3cc(F)c(F)c(F)c3)c2=O)n1 [Compound I-030] | 1000 to 10000 nM | –
23 | Cc1cncc(-n2c(=O)nc(Nc3cc4cn(C(F)F)nc4cc3Cl)n(Cc3ccc(F)c(C#N)c3)c2=O)c1 [Compound I-026] | < 1000 nM | –
24 | Cc1cncc(-n2c(=O)nc(Nc3cc4cn(C)nc4cc3F)n(Cc3ccc(F)c(C#N)c3)c2=O)c1 [Compound I-018] | < 1000 nM | –
25 | Cc1cc2nn(C)cc2cc1Nc1nc(=O)n(-c2cncc3ccccc23)c(=O)n1Cc1ccc(F)c(C#N)c1 [Compound I-027] | < 1000 nM | –
26 | CN(C)C(=O)COC(=O)Cc1ccc(OC(=O)c2ccc(NC(=N)N)cc2)cc1 [Camostatmesylate, reference compound] | – | EC50 [2, 6]: 1300 nM
27 | Casirivimab: anti-SARS-CoV-2 monoclonal antibody | – | EC50 of single agent [2, 8]: 0.077 [μg/mL]
28 | Cc1cc2nn(C)cc2cc1Nc1nc(=O)n(-c2cncc3ccccc23)c(=O)n1Cc1cc(F)c(F)c(F)c1 [Compound I-013] | 1000 to 10000 nM | IC50 (SARS-CoV-2 3CL Protease; [5]): < 100 nM
29 | CC(C)(C)[C@H](NC(=O)C(F)(F)F)C(=O)N1C[C@H]2[C@@H]([C@H]1C(=O)N[C@H](C#N)C[C@@H]1CCNC1=O)C2(C)C [PF-07321332, reference compound] | – | EC50 [2, 6]: 7100 nM
30 | Cc1cncc(-n2c(=O)nc(Nc3cc4cn(C)nc4cc3C)n(Cc3cc(F)c(F)c(F)c3)c2=O)c1 [Compound I-004] | 1000 to 10000 nM | –
31 | Cn1cnc(Cn2c(=O)nc(Nc3cc4cn(CC(F)F)nc4cc3Cl)n(Cc3cc(F)c(F)c(F)c3)c2=O)n1 [Compound I-029] | < 1000 nM | –
32 | CC(=O)NCCn1cc2cc(Nc3nc(=O)n(-c4cncc5ccccc45)c(=O)n3Cc3cc(F)c(F)c(F)c3)c(Cl)cc2n1 [Compound I-033] | 1000 to 10000 nM | –
33 | Bebtelovimab: anti-SARS-CoV-2 monoclonal antibody | – | EC50 of single agent [1]: 0.0231(μg/mL)
34 | O=c1nc(Nc2cc3cn(CCN4CCOCC4)nc3cc2Cl)n(Cc2cc(F)c(F)c(F)c2)c(=O)n1-c1cncc2ccccc12 [Compound I-020] | 1000 to 10000 nM | –
35 | Imdevimab: anti-SARS-CoV-2 monoclonal antibody | – | EC50 of single agent [2, 8]: 0.047 [μg/mL]

From US20250025459A1, “COVID-19 TREATMENT MEDICINE CHARACTERIZED BY COMBINING 3CL PROTEASE INHIBITOR AND COVID-19 TREATMENT DRUG” (priority 2021, published 2025)
